This passage reports IC50 results from patent publication US20090099217A1, “2-Aminopyrimidin-4-Ones And Their Use For Treating Or Preventing Alpha Beta-Related Pathologies” (ASTEX THERAPEUTICS LTD., priority 2006, published 2009).

In this assay the target is T1, human β-Secretase (Homo sapiens, UniProt P56817).
T1 construct: The soluble part of the human β-Secretase (AA 1-AA 460) was cloned; Fc domain of IgG1 (C); made in house
Kind of assay: TR-FRET Assay. It is filed as biochemical. To be noted: sBACE-Fc enzyme 0.3 nM; substrate (Europium)CEVNLDAEFK(Qsy7) 100 nM; pH 4.5. As for the experimental part:
The enzyme used in the IGEN Cleavage-, Fluorescent-, TR-FRET- and the BiaCore assay is described as follows:
The soluble part of the human β-Secretase (AA 1-AA 460) was cloned into the ASP2-Fc10-1-IRES-GFP-neoK mammalian expression vector. The gene was fused to the Fc domain of IgG1 (affinity tag) and stably cloned into HEK 293 cells. Purified sBACE-Fc is stored in Tris buffer, pH 9.2 and has a purity of 95%.
Dilute the enzyme (truncated form) to 6 μg/mL (stock 1.3 mg/mL) and the substrate (Europium)CEVNLDAEFK(Qsy7) to 200 nM (stock 60 μM) in reaction buffer (NaAcetate, chaps, triton x-100, EDTA pH4.5). The Biomek FX is used for all liquid handling and the enzyme and substrate solutions are kept on ice until they are placed in Biomek FX. Enzyme (9 μl) is added to the plate then 1 μl of compound in dimethylsulphoxide is added, mixed and pre-incubated for 10 minutes. Substrate (10 μl) is then added, mixed and the reaction proceeds in the dark for 15 minutes at room temperature. The reaction is stopped with the addition of Stop solution (7 μl, NaAcetate pH 9). The fluorescence of the product is measured on a Victor II plate reader with an excitation wavelength of 340 nm and an emission wavelength of 615 nm. The assay is done in a Costar 384 well round bottom, low volume, non-binding surface (Corning #3676). […]

Structures can show the parent of a compound that is named as a salt.

T1 sequence (P56817 22-460): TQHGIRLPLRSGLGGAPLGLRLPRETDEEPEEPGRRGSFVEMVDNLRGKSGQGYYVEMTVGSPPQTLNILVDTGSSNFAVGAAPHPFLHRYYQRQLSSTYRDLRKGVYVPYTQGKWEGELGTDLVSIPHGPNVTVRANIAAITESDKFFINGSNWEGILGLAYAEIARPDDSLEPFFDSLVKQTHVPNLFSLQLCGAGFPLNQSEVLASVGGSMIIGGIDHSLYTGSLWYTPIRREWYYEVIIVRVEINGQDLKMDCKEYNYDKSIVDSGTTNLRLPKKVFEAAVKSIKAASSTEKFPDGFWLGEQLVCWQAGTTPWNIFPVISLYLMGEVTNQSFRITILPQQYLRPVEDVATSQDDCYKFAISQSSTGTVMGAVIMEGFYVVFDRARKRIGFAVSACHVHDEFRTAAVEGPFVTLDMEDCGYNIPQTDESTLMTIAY

In the case of `CN1C(=O)CC(C)(CCc2cccc(-c3ccnc(Cl)c3)c2)N=C1N` (centres unmarked) [Example 20, 2-Amino-6-{2-[3-(2-chloropyridin-4-yl)phenyl]ethyl}-3,6-dimethyl-5,6-dihydropyrimidin-4(3H)-one hydrochloride], the IC50 (usually the point on the concentration scale where inhibition reaches its midpoint) was 114 nM.
The molecule `COc1cncc(-c2cccc(C3(C)CC(=O)N(C)C(N)=N3)c2)c1` (centres unmarked) [Example 21, 2-Amino-6-[3-(5-methoxypyridin-3-yl)phenyl]-3,6-dimethyl-5,6-dihydropyrimidin-4(3H)-one hydrochloride] gave an IC50 of 316 nM.
